Assay results reported in patent US9072293B2, “Cyclopropenes and method for applying cyclopropenes to agricultural products or crops” (Erum Biotechnologies Inc., priority 2010, dated 2015).
Several values for one entry are separate records, joined by “and”; a condition that tells them apart may be missing. Equal entries are not always repeated.

How the values were obtained:
[1] = Relative chemical stability of cyclopropenes measured by 1H-NMR; assay type: physicochemical; settings: 1H-NMR, CDCl3, stored at −20° C. or room temperature; relative to chain length 1
Text: A variety of analysis methods can be used to analyze the derivatives of Formula 6, since the absorbance of cyclopropenes containing an aryl group can be easily measured in the UV range. It can be confirmed that the chemical stability of the derivatives increases, when the length of chains to link an aryl ring to a cyclopropene ring is 2 or more. […] It is supposed that the stability of cyclopropenes increase due to the fact that π electrons of aryl groups affect π electrons of cyclopropenes.
The following Table 1 summarizes the relative chemical stability of cyclopropenes having a chain length of 2, 3, 4 or 5, based on the chemical stability of cyclopropenes having a chain length of 1. In the case of cyclopropene having a chain length of 1, the structure thereof can be confirmed via ^1H-NMR within one hour following synthesis (degraded to a level of 50% or more within one hour at 30° C.). In the case of cyclopropene having a chain length of zero, synthesis thereof was attempted in accordance with the present invention, but was impossible by a conventional method. Meanwhile, in the case of cyclopropenes having a chain length of 2 or more, the structure thereof can be precisely confirmed by ^1H-NMR as well as ^13C-NMR. The stability of these cyclopropenes was measured by ^1H-NMR while NMR cells (CDCl3) were stored at −20° C. or room temperature. In particular, cyclopropenes having chains of 3 or more were so stable that their half-life reached 5 days or longer at −20° C. or lower. In ^1H-NMR analysis, the stability was evaluated by comparing integral values at 4 to 6.5 ppm (1H) and 0.8 to 0.9 ppm (2H), characteristic peaks of 1-alkylcyclopropenes, using a small amount of 1,1,3,3-tetramethylurea (2.80 ppm) as an internal standard. Furthermore, the stability was also qualitatively evaluated by comparing integral value of the peak newly generated adjacent to the peak of the olefin proton of cyclopropene ring, as a 1-alkylcyclopropene compound is decomposed.

[2] = tested on: tomato; assay: Experimental Example 3: Efficacy test on tomato for other drugs (emulsion and oil-based formulation); assay type: in vivo; set-up: key: an area in which the surface of tomato was colored in pink was 10% or less; an area in which the surface of tomato was completely colored in red was 10 to 40%; 2: an area in which the surface of tomato was completely colored in red was 40 to 70%; 3: an area in which the surface of tomato was completely colored in red was 70% or more and the bottom area remained green; 4: an area in which the surface of tomato was most colored in red and only a part of (0 to 10%) the bottom area remained green; 5: the surface of tomato did not entirely color in green; settings: individual tomatoes n=4
Description: At this time, the tops of tomatoes most early turned red, while the bottoms thereof most lately turned red. For this reason, in order to accurately evaluate the difference in reddening, the coloring evaluated was based on the area of red color, rather than the color of tomatoes. […] Accordingly, the grade level is proportional to the rate at which the tomatoes ripened.
1.0 mM emulsions and oil-based formulations of four agents, i.e., 1-(2-(4-methoxyphenyl)ethyl)cyclopropene, 1-(3-(4-methoxyphenyl)propyl)cyclopropene, 1-(3-phenoxypropyl)cyclopropene and 1-(4-phenoxybutyl)cyclopropene were prepared in accordance with Examples 1 and 2.
The tomatoes were screened in the same manner as in Experimental Example 1 and divided into 9 groups (n=4), i.e., a non-treated group and 4 emulsion-type agent groups and 4 oil-based formulation-type agent groups. Tomatoes were treated with the previously prepared agent using a household sprayer such that the surface thereof was saturated. The tomatoes were stood at room temperature (25-30° C.) for 3 days and a reddening level thereof was evaluated based on grades of 0 to 5.

[3] = 1.0 mM Emulsion, Day 0, room temperature (25-30° C.)
[4] = 1.0 mM Emulsion, Day 1, room temperature (25-30° C.)
[5] = 1.0 mM Emulsion, Day 2, room temperature (25-30° C.)
[6] = 1.0 mM Emulsion, Day 3, room temperature (25-30° C.)
[7] = 1.0 mM Oil-based formulation, Day 0, room temperature (25-30° C.)
[8] = 1.0 mM Oil-based formulation, Day 1, room temperature (25-30° C.)
[9] = 1.0 mM Oil-based formulation, Day 2, room temperature (25-30° C.)
[10] = 1.0 mM Oil-based formulation, Day 3, room temperature (25-30° C.)

Row | Stability (relative chemical stability, based on cyclopropenes having a chain length of 1) [1] | SMILES | reddening level (grade 0 to 5) [2, 3] | reddening level (grade 0 to 5) [2, 4] | reddening level (grade 0 to 5) [2, 5] | reddening level (grade 0 to 5) [2, 6] | reddening level (grade 0 to 5) [2, 7] | reddening level (grade 0 to 5) [2, 8] | reddening level (grade 0 to 5) [2, 9] | reddening level (grade 0 to 5) [2, 10]
1 | >10 | COc1ccc(CCC2=CC2)cc1 [(2-(4-Methoxyphenyl)ethyl), 1-(2-(4-methoxyphenyl)ethyl)cyclopropene] | 0 (an area in which the surface of tomato was colored in pink was 10% or less) (2×) and 1 (an area in which the surface of tomato was completely colored in red was 10 to 40%) and 2 (an area in which the surface of tomato was completely colored in red was 40 to 70%) | 1 (an area in which the surface of tomato was completely colored in red was 10 to 40%) (2×) and 3 (an area in which the surface of tomato was completely colored in red was 70% or more and the bottom area remained green) (2×) | 3 (an area in which the surface of tomato was completely colored in red was 70% or more and the bottom area remained green) (2×) and 4 and 5 | 4 (2×) and 5 (2×) | 0 (an area in which the surface of tomato was colored in pink was 10% or less) (2×) and 1 (an area in which the surface of tomato was completely colored in red was 10 to 40%) and 2 (an area in which the surface of tomato was completely colored in red was 40 to 70%) | 1 (an area in which the surface of tomato was completely colored in red was 10 to 40%) (2×) and 2 (an area in which the surface of tomato was completely colored in red was 40 to 70%) and 3 (an area in which the surface of tomato was completely colored in red was 70% or more and the bottom area remained green) | 2 (an area in which the surface of tomato was completely colored in red was 40 to 70%) (2×) and 3 (an area in which the surface of tomato was completely colored in red was 70% or more and the bottom area remained green) and 4 | 3 (an area in which the surface of tomato was completely colored in red was 70% or more and the bottom area remained green) (2×) and 4 and 5
2 | >>10 | COc1ccc(CCCC2=CC2)cc1 [(3-(4-Methoxyphenyl)propyl), 1-(3-(4-methoxyphenyl)propyl)cyclopropene] | 0 (an area in which the surface of tomato was colored in pink was 10% or less) (2×) and 1 (an area in which the surface of tomato was completely colored in red was 10 to 40%) and 2 (an area in which the surface of tomato was completely colored in red was 40 to 70%) | 0 (an area in which the surface of tomato was colored in pink was 10% or less) (2×) and 1 (an area in which the surface of tomato was completely colored in red was 10 to 40%) and 2 (an area in which the surface of tomato was completely colored in red was 40 to 70%) | 1 (an area in which the surface of tomato was completely colored in red was 10 to 40%) (2×) and 2 (an area in which the surface of tomato was completely colored in red was 40 to 70%) and 3 (an area in which the surface of tomato was completely colored in red was 70% or more and the bottom area remained green) | 2 (an area in which the surface of tomato was completely colored in red was 40 to 70%) (2×) and 3 (an area in which the surface of tomato was completely colored in red was 70% or more and the bottom area remained green) and 4 | 0 (an area in which the surface of tomato was colored in pink was 10% or less) (2×) and 1 (an area in which the surface of tomato was completely colored in red was 10 to 40%) and 2 (an area in which the surface of tomato was completely colored in red was 40 to 70%) | 0 (an area in which the surface of tomato was colored in pink was 10% or less) (2×) and 1 (an area in which the surface of tomato was completely colored in red was 10 to 40%) and 2 (an area in which the surface of tomato was completely colored in red was 40 to 70%) | 1 (an area in which the surface of tomato was completely colored in red was 10 to 40%) (2×) and 2 (an area in which the surface of tomato was completely colored in red was 40 to 70%) and 3 (an area in which the surface of tomato was completely colored in red was 70% or more and the bottom area remained green) | 1 (an area in which the surface of tomato was completely colored in red was 10 to 40%) and 2 (an area in which the surface of tomato was completely colored in red was 40 to 70%) and 3 (an area in which the surface of tomato was completely colored in red was 70% or more and the bottom area remained green) (2×)
3 | >>10 | C1=C(CCCOc2ccccc2)C1 [(3-Phenoxypropyl), 1-(3-phenoxypropyl)cyclopropene] | 0 (an area in which the surface of tomato was colored in pink was 10% or less) (2×) and 1 (an area in which the surface of tomato was completely colored in red was 10 to 40%) and 2 (an area in which the surface of tomato was completely colored in red was 40 to 70%) | 0 (an area in which the surface of tomato was colored in pink was 10% or less) (2×) and 1 (an area in which the surface of tomato was completely colored in red was 10 to 40%) and 2 (an area in which the surface of tomato was completely colored in red was 40 to 70%) | 1 (an area in which the surface of tomato was completely colored in red was 10 to 40%) (2×) and 2 (an area in which the surface of tomato was completely colored in red was 40 to 70%) (2×) | 2 (an area in which the surface of tomato was completely colored in red was 40 to 70%) (2×) and 3 (an area in which the surface of tomato was completely colored in red was 70% or more and the bottom area remained green) (2×) | 0 (an area in which the surface of tomato was colored in pink was 10% or less) (2×) and 1 (an area in which the surface of tomato was completely colored in red was 10 to 40%) and 2 (an area in which the surface of tomato was completely colored in red was 40 to 70%) | 0 (an area in which the surface of tomato was colored in pink was 10% or less) (2×) and 1 (an area in which the surface of tomato was completely colored in red was 10 to 40%) and 2 (an area in which the surface of tomato was completely colored in red was 40 to 70%) | 0 (an area in which the surface of tomato was colored in pink was 10% or less) (2×) and 2 (an area in which the surface of tomato was completely colored in red was 40 to 70%) and 3 (an area in which the surface of tomato was completely colored in red was 70% or more and the bottom area remained green) | 1 (an area in which the surface of tomato was completely colored in red was 10 to 40%) (2×) and 2 (an area in which the surface of tomato was completely colored in red was 40 to 70%) and 3 (an area in which the surface of tomato was completely colored in red was 70% or more and the bottom area remained green)
